According to PubChem BioAssay (NCI):
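Test compounds were applied to cells in 96-well plates for 48 hours at 5 doses. GI50 is the concentration that inhibits growth by half. TGI: concentration producing complete growth inhibition.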 The source made the active and inactive calls. No stated cut-off is given here; in the data, active means GI50 below about 0.43 µM; inactive means the rest.

How the values were obtained:
Test in all cases: DTP human tumour cell line panel, 48 h
[1] = test system: SNB-75 CNS
[2] = test system: OVCAR-3 ovarian
[3] = test system: SF-295 CNS
[4] = test system: SNB-19 CNS
[5] = test system: MALME-3M melanoma
[6] = test system: SN12C renal
[7] = test system: CCRF-CEM leukemia

| Compound | TGI [1] [µM] | TGI [2] [µM] | TGI [3] [µM] | TGI [4] [µM] | TGI [5] [µM] | TGI [6] [µM] | TGI [7] [µM] | GI50 [1] [µM] | GI50 [2] [µM] | GI50 [3] [µM] | GI50 [4] [µM] | GI50 [5] [µM] | GI50 [6] [µM] | GI50 [7] [µM] | outcome [1] | outcome [3] | outcome [4] | outcome [5] | outcome [6] | outcome [7] |
| --- | --- | --- | --- | --- | --- | --- | --- | --- | --- | --- | --- | --- | --- | --- | --- | --- | --- | --- | --- | --- |
| O=NN1C(c2ccccc2)CCCC1c1ccccc1 (configuration not stated) | > 77.6 | > 100 | > 100 | > 100 | > 100 | > 100 | > 100 |  |  |  |  |  |  |  |  |  |  |  |  |  |
| COc1cc(/C(=C2/O[C@@H]([C@H]3COC(C)(C)O3)[C@H]3OC(C)(C)O[C@@H]23)c2ccc3c(c2)OCO3)cc(OC)c1OC | > 25 | > 25 | > 25 | > 25 | > 25 | > 25 | > 25 | 7.13 | > 25 | > 25 | > 25 | > 25 | 18.8 | > 25 |  |  |  |  |  |  |
| CCOC(=O)C1=C(c2ccccc2)C12N(Cc1ccccc1)C(=O)C2(c1ccccc1)c1ccccc1 (configuration not stated) |  | > 100 | > 100 | > 100 | > 100 | > 100 | > 100 |  |  |  |  |  |  |  |  |  |  |  |  |  |
| O=P(O)(O)CN1CCNCCN(CP(=O)(O)O)CCN(CP(=O)(O)O)CCNCC1 |  |  |  |  | 44.1 |  |  |  |  |  |  |  |  |  | inactive | inactive | inactive | inactive | inactive | inactive |
| COc1cc(-c2nc3cc(Cl)c(Cl)cc3[nH]2)ccc1OCC(=O)N=Nc1c(O)[nH]c2ccc(Cl)cc12 | 3.93 | 1.57 |  | 3.33 |  |  | 5.27 | 1 | 0.446 |  | 0.447 |  |  | 0.28 |  |  |  |  |  |  |
| C[N+]1([O-])[C@H]2CC(OC(=O)[C@H](CO)c3ccccc3)C[C@H]1[C@H]1O[C@H]12 (some centres not stated) | > 100 | > 100 | > 100 | > 100 | > 100 | > 100 | > 100 |  |  |  |  |  |  |  |  |  |  |  |  |  |
| O=Cc1c(Br)[nH]c2ccccc12 | > 100 | > 100 | > 100 |  | > 100 | > 100 | > 100 |  |  |  |  |  |  |  |  |  |  |  |  |  |
| COc1ccc([C@H]2c3cc4c(cc3OC(O)(CO)[C@H]2C(=O)O)OCO4)c(OC)c1 (some centres not stated) (tested in a mixture with another compound) | > 100 | > 100 | > 100 | > 100 | > 100 | > 100 | > 100 |  |  |  |  |  |  |  |  |  |  |  |  |  |
| Cc1cc2oc3c(ccc(=O)n3C)c(=O)c2c(C)c1Cl | > 100 | > 100 | > 100 | > 100 | > 100 | > 100 | > 100 |  |  |  |  |  |  |  |  |  |  |  |  |  |
| CCCCOc1ccc2c(c1)CC[C@@H]1[C@@H]2CC[C@]2(C)C(=O)N(CCCC)C(=O)C[C@@H]12 | > 100 | > 100 | > 100 | > 100 | > 100 | > 100 | > 100 |  |  |  |  |  |  |  |  |  |  |  |  |  |
| O=C(c1ccccc1O)c1cc(-c2ncc3c(=O)c4ccccc4oc3n2)c(-c2ccccc2O)[nH]c1=O | > 100 | 62.4 | 22.7 | > 87.5 | 74.4 | 63.7 | 69.3 |  |  |  |  |  |  |  |  |  |  |  |  |  |
| O=C(Nc1ccc(Sc2ccc(N=Nc3c(O)c(S(=O)(=O)O)cc4cc(S(=O)(=O)O)ccc34)cc2)cc1)c1ccc(N=Nc2c(O)c(S(=O)(=O)O)cc3cc(S(=O)(=O)O)ccc23)cc1 | > 100 | 54.9 | > 100 | > 100 | 53.5 | > 100 | 64.3 |  |  |  |  |  |  |  |  |  |  |  |  |  |
| NCCS(=O)(=O)O | > 100 | > 100 | > 100 | > 100 | > 100 | > 100 | > 100 |  |  |  |  |  |  |  |  |  |  |  |  |  |
